Reference: patent US20260232713A1, “PLECOMACROLIDE DERIVATIVES FOR MHC-I NEF DOWNMODULATION” (priority 2022, published 2026)
Values joined by “and” are separate entries in the source; they are usually repeats but may differ in a detail not shown here. Identical values can stand only once. Like-named read-outs stand apart in the source and are kept apart here.

Legend:
V-ATPase = target: T1, V-ATPase (Homo sapiens, UniProt P27449); test: Lysosomal acidification (Lysotracker mean fluorescence intensity) as indicator of V-ATPase activity in primary CD4+ T cells; format: cell-based
T1 construct: endogenous in cells; host or cells: primary CD4+ T cells (HIV ΔGPE infected) from donor PBMCs
Description: (§1) Inhibition of HIV-Nef was measured by assessing its capacity to downmodulate MHC-I HLA-A2 on the surface of primary CD4+ T cells 24-hours after treatment with each compound. V-ATPase inhibition was assessed at the same time point using lysosomal acidification as an indicator of V-ATPase activity. This was measured using a flow cytometric assay that quantified Lysotracker mean fluorescence intensity as previously described (Painter et al., 2020). Cell viability was measured at 24-hour and 72-hour time points using a previously described flow cytometric assay (Painter et al., 2020).
(§2) Anonymized leukocytes isolated by apheresis were obtained from New York Blood Center and peripheral blood mononuclear cells (PBMCs) were isolated by Ficoll-Paque Plus (17144002; GE Healthcare) centrifugation using SepMate tubes (85450; StemCell Technologies) according to the manufacturers protocol. […] Then, 20-24 hours post-PHA activation, 15 mL of R10/PHA medium is removed and replaced with 5 mL of R10+100u/mL Recombinant Human IL-2 (202|L010; R&D Systems). 48 hours after IL-2 stimulation, primary CD4^+ T cells were infected via spinoculation with previously described HIV ΔGPE construct.
(§3) 48 hours after spinoculation, cells were pooled and plated in flat bottom 96-well plate. […] Compounds were thawed at room temperature and diluted in R10 medium to 2× starting concentration.
(§4) All ΔGPE infected cells were collected 24 hours after treatment.
(§5) All statistical analyses were performed using GraphPad Prism software. Curves were generated using GraphPad Prism software using [Inhibitor] vs. response with variable slope (four parameters).

in vitro = details: human
Description: as §1, §2, §3, §4
(§6) All Mock cells were collected 72 hours after treatment.
as §5

primary CD4+ T cells = test: in vitro; details: for Viability:Nef (therapeutic window separating Nef IC50 and TC50): ratio TC50 to Nef IC50
Description: as §1, §2, §3, §4, §6, §5

T1 sequence (P27449 whole entry, looked up): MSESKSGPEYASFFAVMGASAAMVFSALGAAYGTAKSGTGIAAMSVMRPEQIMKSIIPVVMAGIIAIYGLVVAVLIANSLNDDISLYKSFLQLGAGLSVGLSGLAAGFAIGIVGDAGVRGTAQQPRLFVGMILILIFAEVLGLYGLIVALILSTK

In the case of `C/C=C/[C@H]1O[C@@](O)([C@@H](C)[C@H](O)[C@H](C)[C@H]2OC(=O)/C(OC)=C/C(C)=C/[C@@H](C)[C@@H](O)[C@@H](C)[C@@H](O)[C@H](C)C/C(C)=C/C=C/[C@@H]2OC)C[C@@H](O[C@@H]2C[C@H](OC(=O)CCCCCCCC)[C@@H](OC(N)=O)[C@H](C)O2)[C@@H]1C` [Compound 11, 3-nonanoate Concanamycin B], the IC50 (V-ATPase) is reported as 0.17 µM, the CC50 (in vitro) is reported as 0.036 µM and the “Viability:Nef (therapeutic window separating Nef IC50 and TC50)” value (shortened to “Viability:Nef”) (primary CD4+ T cells) is reported as 4.3 fold.
For `C#CCCC(=O)O[C@@H]1C[C@H]([C@@H](C)[C@H](O)[C@H](C)[C@H]2OC(=O)/C(OC)=C/C(C)=C/[C@@H](C)[C@@H](O)[C@@H](C)C/C(C)=C/C=C/[C@@H]2OC)O[C@H](C(C)C)[C@H]1C` [Compound S28], the IC50 (V-ATPase) was 0.061 µM, the CC50 (in vitro) was 0.036 µM and the “Viability:Nef” value (primary CD4+ T cells) was 1.7 fold.
For `C/C=C/CC(=O)O[C@@H]1C[C@](O)([C@@H](C)[C@H](O)[C@H](C)[C@H]2OC(=O)/C(OC)=C/C(C)=C/[C@@H](C)[C@@H](O)[C@@H](C)C/C(C)=C/C=C/[C@@H]2OC)OC(C(C)C)[C@H]1C` (stereo partly shown) [Compound S29], the IC50 (V-ATPase) was 0.047 µM, the CC50 (in vitro) was 0.039 µM and the “Viability:Nef” value (primary CD4+ T cells) was 1.6 fold.
With `C/C=C/[C@H]1O[C@@](O)([C@@H](C)[C@H](O)[C@H](C)[C@H]2OC(=O)/C(OC)=C/C(C)=C/[C@@H](C)[C@@H](O)[C@@H](CC)[C@@H](O)[C@H](C)C/C(C)=C/C=C/[C@@H]2OC)C[C@@H](O[C@@H]2C[C@H](OC(C)=O)[C@@H](OC(N)=O)[C@H](C)O2)[C@@H]1C` [Compound 14, 3′-Acetyl CMA] the IC50 (V-ATPase) was 0.0037 µM, the CC50 (in vitro) was 0.0016 µM and the “Viability:Nef” value (primary CD4+ T cells) was 8.5 fold.
In the case of `C/C=C/[C@H]1O[C@@](O)([C@@H](C)[C@H](O)[C@H](C)[C@H]2OC(=O)/C(OC)=C/C(C)=C/[C@@H](C)[C@@H](O)[C@@H](CC)[C@@H](O)[C@H](C)C/C(C)=C/C=C/[C@@H]2OC)C[C@@H](O[C@@H]2C[C@H](OC(=O)CCCC)[C@@H](OC(N)=O)[C@H](C)O2)[C@@H]1C` [Compound 8, 3-pentanoate Concanamycin A], the IC50 (V-ATPase) is reported as 0.011 µM, the CC50 (in vitro) is reported as 0.0035 µM and the “Viability:Nef” value (primary CD4+ T cells) is reported as 4.8 fold.
With `CO/C1=C\C(C)=C\[C@@H](C)[C@@H](O)[C@@H](C)C/C(C)=C/C=C/[C@H](OC)[C@@H]([C@@H](C)[C@@H](O)[C@H](C)[C@H]2C[C@@H](OC)[C@H](C)[C@@H](C(C)C)O2)OC1=O` [Compound S6] the IC50 (V-ATPase) was 0.052 µM, the CC50 (in vitro) was 0.028 µM and the “Viability:Nef” value (primary CD4+ T cells) was 1.4 fold.
For `CO/C1=C\C(C)=C\[C@@H](C)[C@@H](OC(C)=O)[C@@H](C)C/C(C)=C/C=C/[C@H](OC)[C@@H]([C@@H](C)[C@@H](O)[C@H](C)[C@@]2(O)C[C@@H](OC(C)=O)[C@H](C)C(C(C)C)O2)OC1=O` (stereo partly shown) [Compound S19], the IC50 (V-ATPase) was 0.53 µM, the CC50 (in vitro) was 0.44 µM and the “Viability:Nef” value (primary CD4+ T cells) was 1.8 fold.
For `CC[C@H]1OC(=O)[C@H](C)[C@@H](O)[C@@H](C)C[C@@H](C)C(=O)/C=C/[C@H]1C` [10-deoxymethynolide, reference compound], the IC50 (V-ATPase; Lysotracker Red, ΔGPE infected primary CD4+ T cells, 24 hours after treatment, read-out: Lysotracker (V-ATPase IC50, lysosomal neutralization)) was 1.72 µM, the CC50 at 72 h (in vitro) was 0.14 µM and the “Viability:Nef” value (primary CD4+ T cells) was 0.39 fold.
In the case of `C/C=C/[C@H]1O[C@@](O)([C@@H](C)[C@H](O)[C@H](C)[C@H]2OC(=O)/C(OC)=C/C(C)=C/[C@@H](C)[C@@H](O)[C@@H](C)[C@@H](OC(=O)CCCC)[C@H](C)C/C(C)=C/C=C/[C@@H]2OC)C[C@@H](O[C@@H]2C[C@H](OC(=O)CCCC)[C@@H](OC(N)=O)[C@H](C)O2)[C@@H]1C` [Compound 10, 3′,9-Dipentanoate Concanamycin B], the IC50 (V-ATPase) is reported as 0.13 µM, the CC50 (in vitro) is reported as 0.035 µM and the “Viability:Nef” value (primary CD4+ T cells) is reported as 5.8 fold.
In the case of `CC=CC1OC(O)(C(C)C(O)C(C)C2OC(=O)C(OC)=CC(C)=CC(C)C(O)C(C)C(O)C(C)CC(C)=CC=CC2OC)CC(OC2CC(O)C(OC(N)=O)C(C)O2)C1C` (stereo not shown) [Compound 4, concanamycin B, reference compound], the IC50 (V-ATPase) is reported as 0.026 µM, the CC50 (in vitro) is reported as 0.007 µM and the “Viability:Nef” value (primary CD4+ T cells) is reported as 5 fold and 5.5 fold.
In the case of `C=C/C=C/C(=O)O[C@@H]1C[C@](O)([C@@H](C)[C@H](O)[C@H](C)[C@H]2OC(=O)/C(OC)=C/C(C)=C/[C@@H](C)[C@@H](O)[C@@H](C)C/C(C)=C/C=C/[C@@H]2OC)O[C@H](C(C)C)[C@H]1C` [Compound S12], the IC50 (V-ATPase) is reported as 0.024 µM, the CC50 (in vitro) is reported as 0.022 µM and the “Viability:Nef” value (primary CD4+ T cells) is reported as 1.4 fold.
For `C[C@@H]1C[C@H](C)C[C@H](C)[C@@H](O)CC(=O)O[C@H]([C@@H]2CCC[C@H]2C(=O)O)C/C=C/C=C(/C#N)[C@H](O)[C@@H](C)C1` [Compound S2, Borrelidin, reference compound], the IC50 (V-ATPase) was 0.165 µM, the CC50 at 72 h (in vitro; mock-infected primary CD4+ T cells) was 0.091 µM and the “Toxicity at 24 hours” value (primary CD4+ T cells; 24-hour time point) was “toxic at 24-hours”. The “Viability:Nef” value (primary CD4+ T cells) was 2.0 fold.
In the case of `CC=CC=CC1OC(O)(C(C)C(O)C(C)C2OC(=O)C(OC)=CC(C)=CC(C)C(O)C(C)CC(C)=CC=CC2OC)CC(OC2CC(O)C(O)C(C)O2)C1C` (stereo not shown) [Compound S15, PC-766B, reference compound], the IC50 (V-ATPase) is reported as 0.0025 µM, the CC50 (in vitro) is reported as 0.0013 µM and the “Viability:Nef” value (primary CD4+ T cells) is reported as 1.1 fold.
With `C/C=C/[C@H]1O[C@@](O)([C@@H](C)[C@H](O)[C@H](C)[C@H]2OC(=O)/C(OC)=C/C(C)=C/[C@@H](C)[C@@H](O)[C@@H](CC)[C@@H](OC(C)=O)[C@H](C)C/C(C)=C/C=C/[C@@H]2OC)C[C@@H](O[C@@H]2C[C@H](OC(C)=O)[C@@H](OC(N)=O)[C@H](C)O2)[C@@H]1C` [Compound 15, 3′,9-diacetyl CMA] the IC50 (V-ATPase) was 0.0079 µM, the CC50 (in vitro) was 0.0039 µM and the “Viability:Nef” value (primary CD4+ T cells) was 11 fold.
For `C/C=C/[C@H]1O[C@@](O)([C@@H](C)[C@H](O)[C@H](C)[C@H]2OC(=O)/C(OC)=C/C(C)=C/[C@@H](C)[C@@H](O)[C@@H](CC)[C@@H](O)[C@H](C)C/C(C)=C/C=C/[C@@H]2OC)C[C@@H](OC(C)=O)[C@@H]1C` [Compound S50, 23-Acetyl CMF], the IC50 (V-ATPase) was 0.0061 µM, the CC50 (in vitro) was 0.0061 µM and the “Viability:Nef” value (primary CD4+ T cells) was 5.8 fold.
In the case of `C/C=C/[C@H]1O[C@@](O)([C@@H](C)[C@H](O)[C@H](C)[C@H]2OC(=O)/C(OC)=C/C(C)=C/[C@@H](C)[C@@H](O)[C@@H](CC)[C@@H](OC(C)=O)[C@H](C)C/C(C)=C/C=C/[C@@H]2OC)C[C@@H](O[C@@H]2C[C@H](OC(C)=O)[C@@H](OC(C)=O)[C@H](C)O2)[C@@H]1C` [Compound S49, 3′,4′,9-triaceyl CMC], the IC50 (V-ATPase) is reported as 0.011 µM, the CC50 (in vitro) is reported as 0.0045 µM and the “Viability:Nef” value (primary CD4+ T cells) is reported as 1.8 fold.
With `C/C=C/[C@H]1O[C@@](O)([C@@H](C)[C@H](O)[C@H](C)[C@H]2OC(=O)/C(OC)=C/C(C)=C/[C@@H](C)[C@@H](O)[C@@H](C)[C@@H](O)[C@H](C)C/C(C)=C/C=C/[C@@H]2OC)C[C@@H](O[C@@H]2C[C@H](OC(C)=O)[C@@H](OC(N)=O)[C@H](C)O2)[C@@H]1C` [Compound 12, 3′-Acetyl Concanamycin B] the IC50 (V-ATPase) was 0.02 µM, the CC50 (in vitro) was 0.0053 µM and the “Viability:Nef” value (primary CD4+ T cells) was 8 fold and 8.0 fold.
For `C/C=C/[C@H]1O[C@@](O)([C@@H](C)[C@H](O)[C@H](C)[C@H]2OC(=O)/C(OC)=C/C(C)=C/[C@@H](C)[C@@H](O)[C@@H](C)[C@@H](OC(C)=O)[C@H](C)C/C(C)=C/C=C/[C@@H]2OC)C[C@@H](O[C@@H]2C[C@H](OC(C)=O)[C@@H](OC(N)=O)[C@H](C)O2)[C@@H]1C` [Compound 13, 3′,9-Diacetyl CMB], the IC50 (V-ATPase) was 0.038 µM, the CC50 (in vitro) was 0.008 µM and the “Viability:Nef” value (primary CD4+ T cells) was 8.8 fold.
For `C/C=C/[C@H]1O[C@@](O)([C@@H](C)[C@H](O)[C@H](C)[C@H]2OC(=O)/C(OC)=C/C(C)=C/[C@@H](C)[C@@H](O)[C@@H](C)[C@@H](O)[C@H](C)C/C(C)=C/C=C/[C@@H]2OC)C[C@@H](O[C@@H]2C[C@H](OC(=O)CCCC)[C@@H](OC(N)=O)[C@H](C)O2)[C@@H]1C` [Compound 9, 3-pentanoate Concanamycin B], the IC50 (V-ATPase) was 0.11 µM, the CC50 (in vitro) was 0.027 µM and the “Viability:Nef” value (primary CD4+ T cells) was 7.9 fold.
In the case of `CO/C1=C\C(C)=C\[C@@H](C)[C@@H](O)[C@@H](C)C/C(C)=C/C=C/[C@H](OC)[C@@H]([C@@H](C)[C@@H](O)[C@H](C)[C@@]2(OC)C[C@@H](O)[C@H](C)C(C(C)C)O2)OC1=O` (stereo partly shown) [Compound S4, Bafilomycin A2], the IC50 (V-ATPase) is reported as 0.024 µM, the CC50 (in vitro) is reported as 0.013 µM and the “Viability:Nef” value (primary CD4+ T cells) is reported as 1.2 fold.
For `C/C=C/[C@H]1O[C@@](O)([C@@H](C)[C@H](O)[C@H](C)[C@H]2OC(=O)/C(OC)=C/C(C)=C/[C@@H](C)[C@@H](O)[C@@H](CC)[C@@H](O)[C@H](C)C/C(C)=C/C=C/[C@@H]2OC)C[C@@H](O[C@@H]2C[C@H](OC(C)=O)[C@@H](OC(C)=O)[C@H](C)O2)[C@@H]1C` [Compound S48, 3′,4-diacetyl CMC], the IC50 (V-ATPase) was 0.0031 µM, the CC50 (in vitro) was 0.0013 µM and the “Viability:Nef” value (primary CD4+ T cells) was 1.8 fold.
